Data on 24 compounds can be found in patent US20060035920A1, “Chk-1 inhibitors” (Millennium Pharmaceuticals, Inc., priority 2004, published 2006).

Bounds are passed on as bounds.

The target of this assay is T1, Recombinant human Chk1 (GST-Chk1) (Homo sapiens, UniProt O14757).
T1 construct: made in house; host or cells: insect cells (baculovirus, Bac-to-Bac system)
T1 sequence (O14757 1-476): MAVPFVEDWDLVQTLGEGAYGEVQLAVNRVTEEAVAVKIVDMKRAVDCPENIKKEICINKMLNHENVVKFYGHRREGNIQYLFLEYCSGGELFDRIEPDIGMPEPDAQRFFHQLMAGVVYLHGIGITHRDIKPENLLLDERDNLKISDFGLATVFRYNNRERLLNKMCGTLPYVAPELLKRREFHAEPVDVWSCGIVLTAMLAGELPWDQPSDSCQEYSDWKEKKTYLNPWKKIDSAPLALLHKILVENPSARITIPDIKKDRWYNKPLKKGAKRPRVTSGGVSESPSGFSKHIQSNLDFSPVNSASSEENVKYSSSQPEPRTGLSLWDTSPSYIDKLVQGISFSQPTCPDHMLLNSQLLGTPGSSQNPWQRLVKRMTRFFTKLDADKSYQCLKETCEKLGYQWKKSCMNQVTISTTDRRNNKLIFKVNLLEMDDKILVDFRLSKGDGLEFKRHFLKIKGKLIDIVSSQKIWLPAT
Nature of the assay: Chk1 DELFIA Kinase Assay. It is filed as biochemical. The procedure: Recombinant human Chk1 was expressed as a fusion protein with glutathione S-transferase at the amino-terminus (GST-Chk1) using standard baculovirus vectors and (Bac-to-Bac®) insect cell expression system purchased from GIBCO™ Invitrogen. Recombinant protein expressed in insect cells was purified using glutathione sepharose (Amersham Biotech) using standard procedures described by the manufacturer.
Chk1 DELFIA® Kinase Assay:
Assays (25 μL) utilized 2 nM GST-Chk1 containing 10 mM Tris, pH 7.5, 20% glycerol, 50 mM sodium chloride (NaCl), 0.01% Surfact-Amps® 20, 1 μM peptide stubstrate (Biotin-GLYRSPSMPEN-amide) (SEQ ID NO: 2), 01.% BSA, 2 mM DTT, 4% DMSO, 600 μM ATP, 10 mM MgCl2 and reacted for 50 minutes at room temperature. Reactions were terminated with 100 μL of Stop buffer containing 1% BSA, 10 mM Tris, pH 8.0, 150 mM NaCl, 100 mM EDTA. Stopped reactions (100 μL) were transferred to 96 well NeutrAvidin plates (Pierce) to capture the biotin-peptide substrate during a 30 minute room temperature incubation. Wells were washed and reacted with 100 μL PerkinElmer Wallac Assay Buffer containing 21.5 ng/ml anti-phospho-Ser216-Cdc25c rabbit polyclonal antibody from Cell Signaling Technology (Beverly, Mass.) and 292 ng/ml europium labeled anti-rabbit-IgG for 1 hour at room temperature. Wells were washed and europium released from the bound antibody by addition of Enhancement Solution (100 μL) (PerkinElmer Wallac) and detected using a Perkin Elmer Wallac Envison™ 2100 multilabel reader using standard manufacturer settings.

Setting [1] is: GST-Chk1 kinase assay, bound given in nM.
Where [2] appears, read: GST-Chk1 in vitro kinase assay, bound given in μM.

The IC50 is the point on the concentration scale where inhibition reaches its midpoint. On to `CCn1c(=O)c2c(C)[nH]nc2c2cc(C#CC(C)(C)NC(C)(C)C)ccc21` [Compound I-39, 8-[3-(tert-butylamino)-3-methylbut-1-yn-1-yl]-5-ethyl-3-methyl-2,5-dihydro-4H-pyrazolo[4,3-c]quinolin-4-one], for which the IC50 under setting [1] is less than 500 nM.
On the same count and under the same terms, then `CCn1c(=O)c2c(C)[nH]nc2c2cc(C#CC(C)(C)N)ccc21` [Compound I-15, 8-(3-amino-3-methylbut-1-yn-1-yl)-5-ethyl-3-methyl-2,5-dihydro-4H-pyrazolo[4,3-c]quinolin-4-one], with less than 500 nM; and `CCN(CC)CC#Cc1ccc2c(c1)c1n[nH]c(C)c1c(=O)n2CC` [Compound I-1, 8-[3-(diethylamino)prop-1-yn-1-yl]-5-ethyl-3-methyl-2,5-dihydro-4H-pyrazolo[4,3-c]quinolin-4-one], with less than 500 nM; and `CCn1c(=O)c2c(C)[nH]nc2c2cc(C#CCN3CCCC3)ccc21` [Compound I-21, 5-ethyl-3-methyl-8-(3-pyrrolidin-1-ylprop-1-yn-1-yl)-2,5-dihydro-4H-pyrazolo[4,3-c]quinolin-4-one], with less than 500 nM.
Same read-out and setting: next, `CCn1c(=O)c2c(C)[nH]nc2c2cc(-c3ccc(CN4CC[C@H](O)C4)s3)ccc21` [Compound I-83, 5-ethyl-8-(5-{[(3S)-3-hydroxypyrrolidin-1-yl]methyl}-2-thienyl)-3-methyl-2,5-dihydro-4H-pyrazolo[4,3-c]quinolin-4-one]: less than 500 nM; `CCn1c(=O)c2c(C)[nH]nc2c2cc(C#CCN3[C@H](C)CC[C@H]3C)ccc21` (racemic) [Compound I-2, 8-{3-[(2S,5S)-2,5-dimethylpyrrolidin-1-yl]prop-1-yn-1-yl}-5-ethyl-3-methyl-2,5-dihydro-4H-pyrazolo[4,3-c]quinolin-4-one]: less than 500 nM; `Cc1[nH]nc2c1c(=O)n(CC1CC1)c1ccc(C#CCN3CCCC3)cc21` [Compound I-6, 5-(cyclopropylmethyl)-3-methyl-8-(3-pyrrolidin-1-ylprop-1-yn-1-yl)-2,5-dihydro-4H-pyrazolo[4,3-c]quinolin-4-one]: less than 500 nM.
As for `COCCn1c(=O)c2c(C)[nH]nc2c2cc(C#CCN3CCCC3)ccc21` [Compound I-5, 5-(2-methoxyethyl)-3-methyl-8-(3-pyrrolidin-1-ylprop-1-yn-1-yl)-2,5-dihydro-4H-pyrazolo[4,3-c]quinolin-4-one], the IC50 under setting [1] is less than 500 nM.
The same measure, in the same setting: then `CCn1c(=O)c2c(C)[nH]nc2c2cc(/C=C/CN(C(C)C)C(C)C)ccc21` [Compound I-44, 8-[(1E)-3-(diisopropylamino)prop-1-en-1-yl]-5-ethyl-3-methyl-2,5-dihydro-4H-pyrazolo[4,3-c]quinolin-4-one], with less than 500 nM.
On to `CCn1c(=O)c2c(C)[nH]nc2c2cc(-c3ccc(CN4CCc5ccccc5C4)s3)ccc21` [Compound I-48, 8-[5-(3,4-dihydroisoquinolin-2(1H)-ylmethyl)-2-thienyl]-5-ethyl-3-methyl-2,5-dihydro-4H-pyrazolo[4,3-c]quinolin-4-one], for which the IC50 reads like this: under setting [2], less than 1000 nM; under setting [1], greater than 500 nM.
Take `CCn1c(=O)c2c(C)[nH]nc2c2cc(/C=C/CN3[C@@H](C)CC[C@@H]3C)ccc21` (racemic) [Compound I-40, 8-{(1E)-3-[(2S,5S)-2,5-dimethylpyrrolidin-1-yl]prop-1-en-1-yl}-5-ethyl-3-methyl-2,5-dihydro-4H-pyrazolo[4,3-c]quinolin-4-one]: the IC50 under setting [1] is less than 500 nM.
Still for that read-out and setting: next, `Cc1[nH]nc2c1c(=O)n(CCF)c1ccc(-c3ccc(CN4CCCC4)s3)cc21` [Compound I-47, 5-(2-fluoroethyl)-3-methyl-8-[5-(pyrrolidin-1-ylmethyl)-2-thienyl]-2,5-dihydro-4H-pyrazolo[4,3-c]quinolin-4-one]: less than 500 nM; `CCn1c(=O)c2c(C)[nH]nc2c2cc(C#CCN(C(C)C)C(C)C)ccc21` [Compound I-36, 8-[3-(diisopropylamino)prop-1-yn-1-yl]-5-ethyl-3-methyl-2,5-dihydro-4H-pyrazolo[4,3-c]quinolin-4-one]: less than 500 nM.
On the same count and under the same terms, next, `CCN(CC)CCc1ccc(-c2ccc3c(c2)c2n[nH]c(C)c2c(=O)n3CC)s1` [Compound I-82, 8-{5-[2-(diethylamino)ethyl]-2-thienyl}-5-ethyl-3-methyl-2,5-dihydro-4H-pyrazolo[4,3-c]quinolin-4-one]: less than 500 nM; `CCn1c(=O)c2c(C)[nH]nc2c2cc(C#CCN(C(C)C)C(C)(C)C)ccc21` [Compound I-38, 8-{3-[tert-butyl(isopropyl)amino]prop-1-yn-1-yl}-5-ethyl-3-methyl-2,5-dihydro-4H-pyrazolo[4,3-c]quinolin-4-one]: less than 500 nM.
The same measure, in the same setting: then `CCn1c(=O)c2c(C)[nH]nc2c2cc(/C=C/CN(C)Cc3ccccc3)ccc21` [Compound I-45, 8-{(1E)-3-[benzyl(methyl)amino]prop-1-en-1-yl}-5-ethyl-3-methyl-2,5-dihydro-4H-pyrazolo[4,3-c]quinolin-4-one], with less than 500 nM; and `Cc1[nH]nc2c1c(=O)n(C)c1ccc(C#CCN3CCCC3)cc21` [Compound I-12, 3,5-dimethyl-8-(3-pyrrolidin-1-ylprop-1-yn-1-yl)-2,5-dihydro-4H-pyrazolo[4,3-c]quinolin-4-one], with less than 500 nM.
As for `CCn1c(=O)c2c(C)[nH]nc2c2cc(C#CCN3[C@H](C)CCC[C@@H]3C)ccc21` [Compound I-37, 8-{3-[(2R,6S)-2,6-dimethylpiperidin-1-yl]prop-1-yn-1-yl}-5-ethyl-3-methyl-2,5-dihydro-4H-pyrazolo[4,3-c]quinolin-4-one], the IC50 under setting [1] is less than 500 nM.
On the same count and under the same terms, next, `CCn1c(=O)c2c(C)[nH]nc2c2cc(C#CCN3CCOCC3)ccc21` [Compound I-7, 5-ethyl-3-methyl-8-(3-morpholin-4-ylprop-1-yn-1-yl)-2,5-dihydro-4H-pyrazolo[4,3-c]quinolin-4-one]: less than 500 nM; `CCn1c(=O)c2c(C)[nH]nc2c2cc(C#CCN3CCCCC3)ccc21` [Compound I-9, 5-ethyl-3-methyl-8-(3-piperidin-1-ylprop-1-yn-1-yl)-2,5-dihydro-4H-pyrazolo[4,3-c]quinolin-4-one]: less than 500 nM; `CCn1c(=O)c2c(C)[nH]nc2c2cc(C#CCN(C)C)ccc21` [Compound I-11, 8-[3-(dimethylamino)prop-1-yn-1-yl]-5-ethyl-3-methyl-2,5-dihydro-4H-pyrazolo[4,3-c]quinolin-4-one]: less than 500 nM.
Same read-out and setting: next, `C#Cc1ccc2c(c1)c1n[nH]c(C)c1c(=O)n2C` [Compound I-22, 8-ethynyl-3,5-dimethyl-2,5-dihydro-4H-pyrazolo[4,3-c]quinolin-4-one]: less than 500 nM.
For `CCn1c(=O)c2c(C)[nH]nc2c2cc(-c3cnn(C)c3)ccc21` [Compound I-51, 5-ethyl-3-methyl-8-(1-methyl-1H-pyrazol-4-yl)-2,5-dihydro-4H-pyrazolo[4,3-c]quinolin-4-one], the IC50 under setting [2] is less than 1000 nM and the half-maximal inhibitory concentration (IC50) under setting [1] was greater than 500 nM.
For `CCn1c(=O)c2c(C)[nH]nc2c2cc(/C=C/CN3CCCC3)ccc21` [Compound I-25, 5-ethyl-3-methyl-8-[(1E)-3-pyrrolidin-1-ylprop-1-en-1-yl]-2,5-dihydro-4H-pyrazolo[4,3-c]quinolin-4-one], the IC50 under setting [1] is less than 500 nM.
